Data from the NIST ThermoML archive (doi:10.1016/j.fluid.2010.08.026).
± gives the expanded uncertainty stated by the source.

Experiments:
[1] = Closed cell (Static) method; for Normal melting temperature: Crystal 1
[2] = Molar enthalpy of transition or fusion

## CC(O)CNCC(C)O (stereo not given) [N-(2-hydroxypropyl)-2-hydroxy-1-propanamine]
[1]
  Normal melting temperature: 42.7 °C
[2]; Crystal 1, Closed cell (Static) method
  Molar enthalpy of transition or fusion: 5.43 kcal/mol

## CN(CCO)CCO [N-methyldiethanolamine]
[1]; 356.86 K, Liquid
  vapor or sublimation pressure: 0.2 kPa
[1]
  Normal melting temperature: -23 °C

## CC(C)NC(C)C [diisopropylamine]
[2]; Crystal, DSC
  Molar enthalpy of transition or fusion: 5.43 ± 0.172 kcal/mol
